Source: patent publication US20110166112A1, “METHOD FOR STIMULATING PLATELET PRODUCTION” (Eisai, Inc., priority 2009, published 2011)
Several values for one entry are separate records, joined by “and”; a condition that tells them apart may be missing. Identical values can stand only once.

Test system: subjects with chronic idiopathic thrombocytopenic purpura (ITP)
Assay: Phase 2 double-blind placebo-controlled dose-ranging 28-day study of E5501 tablets: platelet count response (responder rate)
Type: in vivo, human
Conditions: for subjects with sustained platelet increases that met the criteria for positive response: 28 days
Experimental: This was a phase 2, multi-center, double-blind, randomized, placebo-controlled, dose-ranging, parallel group study of E5501 tablets, used in the treatment of subjects with chronic idiopathic thrombocytopenic purpura (ITP) refractory to or relapsed after at least one prior ITP therapy. Subjects who met all entry criteria were randomly assigned in a 3:3:3:3:1 ratio to one of the following five treatment groups dosed daily for 28 days: 1) E5501 2.5 mg; 2) E5501 5 mg; 3) E5501 10 mg; 4) E5501 20 mg; or 5) placebo (PBO). Each E5501 dosing group consisted of 15 subjects while the PBO group consisted of 5 subjects. All study subjects were evaluated weekly (days 7, 14, 21 and 28) for safety and efficacy while receiving study treatment, with a final assessment for safety and effectiveness performed 4 weeks after the last study dose (day 56) unless the subject entered the follow-on study. Platelet counts were also measured on day 3 and day 5.
The primary objective of this study was to assess platelet count response to E5501 on day 28. The response rate was defined as the proportion of subjects who were not on steroids with a screening visit B platelet count <30,000/mm^3 and who achieved a platelet count ≧50,000/mm^3, together with the proportion of subjects receiving steroids with a screening visit B platelet count ≧30,000/mm^3 but <50,000/mm^3 who achieved a platelet count ≧20,000/mm^3 above their screening visit B platelet count. Secondary objectives of the study included the evaluation of other markers of effectiveness, including changes in peripheral blood platelet count, the proportion of subjects who achieved a platelet count ≧50,000/mm^3 and ≧100,000/mm^3, and the proportion of subjects who achieved a doubling of their platelet count at screening visit B and the assessment of the safety and tolerability of E5501.
Primary efficacy endpoint. The primary endpoint in this study was E5501 responder rate on day 28. A responder is defined as a subject with screening visit B platelet count <30,000/mm^3 who achieves a platelet count ≧50,000/mm^3 or a subject receiving steroids with a screening visit B platelet count ≧30,000/mm^3 but <50,000/mm^3 who achieves a platelet count ≧20,000/mm^3 above their screening visit B platelet count.
The secondary endpoints included changes from screening visit B in peripheral blood platelet counts over time; the proportion of subjects who achieved a platelet count of ≧50,000/mm^3 or ≧100,000/mm^3 on day 28 and the proportion of subjects whose platelet count doubled compared to their platelet count at Screening Visit B.
The populations of interest were defined as follows: • The randomized population included all subjects who were randomized into the study. • The safety population included all randomized subjects who receive at least one dose of study drug and have at least one safety assessment. • The pharmacokinetic (PK) population included all subjects who provided blood sample for analysis of E5501. A subject was included in this population if the subject had at least one blood draw for PK assessment. • The full analysis set (FAS) included all subjects who provided adequate data to derive at least one efficacy assessment. […] The day 28 visit window was defined to be from day 25, to last dose day+1, inclusively; • Other major protocol violations that impacted the platelet endpoint evaluation. Results from Planned Analyses
Primary Efficacy Endpoint. The analysis of efficacy was performed both on the FAS population and the PP population at day 28 visit with LOCF and observed case (OC) approaches. The primary analysis population was the FAS. Fisher's exact test was used to examine the difference of response rates among each treatment pair. All p-values are nominal without adjustment for multiplicity.
Secondary Efficacy Endpoint. Analyses for secondary efficacy endpoints were performed by treatment group and by analysis visit using both LOCF and OC methods. […]

[1] = Day 3, FAS, Observed Case, 2.5 mg
[2] = Day 3, FAS, Observed Case, 5 mg
[3] = Day 3, FAS, Observed Case, 10 mg
[4] = Day 3, FAS, Observed Case, 20 mg
[5] = Day 3, FAS, Observed Case, Total E5501
[6] = Day 5, FAS, Observed Case, 2.5 mg
[7] = Day 5, FAS, Observed Case, 5 mg
[8] = Day 5, FAS, Observed Case, 10 mg
[9] = Day 5, FAS, Observed Case, 20 mg
[10] = Day 5, FAS, Observed Case, Total E5501
[11] = Day 28, Baseline Platelet Cnt. >15K/mm^3, 2.5 mg
[12] = Day 28, Baseline Platelet Cnt. >15K/mm^3, 5 mg
[13] = Day 28, Baseline Platelet Cnt. >15K/mm^3, 10 mg
[14] = Day 28, Baseline Platelet Cnt. >15K/mm^3, 20 mg
[15] = Day 28, Baseline Platelet Cnt. >15K/mm^3, Total E5501
[16] = Day 28, Baseline Platelet Cnt. ≦15K/mm^3, 2.5 mg
[17] = Day 28, Baseline Platelet Cnt. ≦15K/mm^3, 5 mg
[18] = Day 28, Baseline Platelet Cnt. ≦15K/mm^3, 10 mg
[19] = Day 28, Baseline Platelet Cnt. ≦15K/mm^3, 20 mg
[20] = Day 28, Baseline Platelet Cnt. ≦15K/mm^3, Total E5501
[21] = Day 28, Full Analysis Population, LOCF, 2.5 mg
[22] = Day 28, Full Analysis Population, LOCF, 5 mg
[23] = Day 28, Full Analysis Population, LOCF, 10 mg
[24] = Day 28, Full Analysis Population, LOCF, 20 mg
[25] = Day 28, Full Analysis Population, LOCF, Total E5501
[26] = Day 28, No Previous History of Splenectomy, 2.5 mg
[27] = Day 28, No Previous History of Splenectomy, 5 mg

O=C(Nc1nc(-c2cc(Cl)cs2)c(N2CCN(C3CCCCC3)CC2)s1)c1cnc(N2CCC(C(=O)O)CC2)c(Cl)c1 [E5501, 1-(3-chloro-5-{[4-(4-chlorothiophen-2-yl)-5-(4-cyclohexylpiperazin-1-yl)thiazol-2-yl]carbamoyl}pyridine-2-yl)piperidine-4-carboxylic acid]
subjects refractory to splenectomy who responded (20 mg): 66.7% | reduction in the response rate from day 7 to 28 days (20 mg dose group): about 15% | platelet counts from baseline (FIG. 1) (28 day study period, 2.5-20 mg): markedly increased platelet counts from baseline | subjects with sustained platelet increases that met the criteria for positive response (5 mg): 28.6% | subjects with sustained platelet increases that met the criteria for positive response (10 mg): 41.7% | subjects with sustained platelet increases that met the criteria for positive response (20 mg): 76.9% and ~80% | Responder, No [1]: 4 (100.0) n (%) | Responder, Yes [1]: 0 n (%) | Responder, No [2]: 3 (100.0) n (%) | Responder, Yes [2]: 0 n (%) | Responder, No [3]: 2 (100.0) n (%) | Responder, Yes [3]: 0 n (%) | Responder, No [4]: 3 (75.0) n (%) | Responder, Yes [4]: 1 (25.0) n (%) | Responder, No [5]: 12 (92.3) n (%) | Responder, Yes [5]: 1 (7.7) n (%) | Responder, No [6]: 4 (100.0) n (%) | Responder, Yes [6]: 0 n (%) | Responder, No [7]: 2 (33.3) n (%) | Responder, Yes [7]: 4 (66.7) n (%) | Responder, No [8]: 3 (75.0) n (%) | Responder, Yes [8]: 1 (25.0) n (%) | Responder, No [9]: 4 (80.0) n (%) | Responder, Yes [9]: 1 (20.0) n (%) | Responder, No [10]: 13 (68.4) n (%) | Responder, Yes [10]: 6 (31.6) n (%) | Nonresponder (Day 7, FAS, LOCF, 2.5 mg): 14 (93.3) n (%) | Responder (Day 7, FAS, LOCF, 2.5 mg): 1 (6.7) n (%) | Nonresponder (Day 7, FAS, LOCF, 5 mg): 5 (33.3) n (%) | Responder (Day 7, FAS, LOCF, 5 mg): 10 (66.7) n (%) | Nonresponder (Day 7, FAS, LOCF, 10 mg): 5 (35.7) n (%) | Responder (Day 7, FAS, LOCF, 10 mg): 9 (64.3) n (%) | Nonresponder (Day 7, FAS, LOCF, 20 mg): 1 (6.7) n (%) | Responder (Day 7, FAS, LOCF, 20 mg): 14 (93.3) n (%) | Nonresponder (Day 7, FAS, LOCF, Total E5501): 25 (42.4) n (%) | Responder (Day 7, FAS, LOCF, Total E5501): 34 (57.6) n (%) | Nonresponder (Day 14, FAS, LOCF, 2.5 mg): 12 (80.0) n (%) | Responder (Day 14, FAS, LOCF, 2.5 mg): 3 (20.0) n (%) | Nonresponder (Day 14, FAS, LOCF, 5 mg): 6 (40.0) n (%) | Responder (Day 14, FAS, LOCF, 5 mg): 9 (60.0) n (%) | Nonresponder (Day 14, FAS, LOCF, 10 mg): 3 (21.4) n (%) | Responder (Day 14, FAS, LOCF, 10 mg): 11 (78.6) n (%) | Nonresponder (Day 14, FAS, LOCF, 20 mg): 1 (6.7) n (%) | Responder (Day 14, FAS, LOCF, 20 mg): 14 (93.3) n (%) | Nonresponder (Day 14, FAS, LOCF, Total E5501): 22 (37.3) n (%) | Responder (Day 14, FAS, LOCF, Total E5501): 37 (62.7) n (%) | Nonresponder (Day 21, FAS, LOCF, 2.5 mg): 13 (86.7) n (%) | Responder (Day 21, FAS, LOCF, 2.5 mg): 2 (13.3) n (%) | Nonresponder (Day 21, FAS, LOCF, 5 mg): 6 (40.0) n (%) | Responder (Day 21, FAS, LOCF, 5 mg): 9 (60.0) n (%) | Nonresponder (Day 21, FAS, LOCF, 10 mg): 7 (50.0) n (%) | Responder (Day 21, FAS, LOCF, 10 mg): 7 (50.0) n (%) | Nonresponder (Day 21, FAS, LOCF, 20 mg): 2 (13.3) n (%) | Responder (Day 21, FAS, LOCF, 20 mg): 13 (86.7) n (%) | Nonresponder (Day 21, FAS, LOCF, Total E5501): 28 (47.5) n (%) | Responder (Day 21, FAS, LOCF, Total E5501): 31 (52.5) n (%) | Responder, No [11]: 8 (80.0) n (%) | Responder, Yes [11]: 2 (20.0) n (%) | Responder, No [12]: 6 (46.2) n (%) | Responder, Yes [12]: 7 (53.8) n (%) | Responder, No [13]: 4 (44.4) n (%) | Responder, Yes [13]: 5 (55.6) n (%) | Responder, No [14]: 2 (18.2) n (%) | Responder, Yes [14]: 9 (81.8) n (%) | Responder, No [15]: 20 (46.5) n (%) | Responder, Yes [15]: 23 (53.5) n (%) | Responder, No [16]: 5 (100.0) n (%) | Responder, Yes [16]: 0 n (%) | Responder, No [17]: 1 (50.0) n (%) | Responder, Yes [17]: 1 (50.0) n (%) | Responder, No [18]: 3 (60.0) n (%) | Responder, Yes [18]: 2 (40.0) n (%) | Responder, No [19]: 1 (25.0) n (%) | Responder, Yes [19]: 3 (75.0) n (%) | Responder, No [20]: 10 (62.5) n (%) | Responder, Yes [20]: 6 (37.5) n (%) | Responder, No [21]: 13 (86.7) n (%) | Responder, Yes [21]: 2 (13.3) n (%) | Responder, No [22]: 7 (46.7) n (%) | Responder, Yes [22]: 8 (53.3) n (%) | Responder, No [23]: 7 (50.0) n (%) | Responder, Yes [23]: 7 (50.0) n (%) | Responder, No [24]: 3 (20.0) n (%) | Responder, Yes [24]: 12 (80.0) n (%) | Responder, No [25]: 30 (50.8) n (%) | Responder, Yes [25]: 29 (49.2) n (%) | Responder, No [26]: 9 (90.0) n (%) | Responder, Yes [26]: 1 (10.0) n (%) | Responder, No [27]: 5 (45.5) n (%) | Responder, Yes [27]: 6 (54.5) n (%) | Responder, No (Day 28, No Previous History of Splenectomy, 10 mg): 5 (45.5) n (%)
